Structures can show the parent of a compound that is named as a salt.
Columns and labels:
Format in all cases: biochemical
[1] = system: Human Plasma; assay: Human plasma anticoagulation, thrombin time (TT); conditions: concentration required to double the clotting time
Experimental: (§1) Dog plasma and rat plasma is obtained from conscious mixed-breed hounds (either sex, Hazelton-LRE, Kalamazoo, Mich., U.S.A.) or from anesthetized male Sprague-Dawley rats (Harlan Sprague-Dawley, Inc., Indianapolis, Ind., U.S.A.) by venipuncture into 3.8 percent citrate. Fibrinogen is prepared from in-date ACD human blood as the fraction I-2 according to previous procedures and specifications. […] Human fibrinogen is also purchased as 98 percent pure/plasmin free from American Diagnostica, Greenwich, Conn. Coagulation reagents ACTIN, Thromboplastin, and Human plasma are from Baxter Healthcare Corp., Dade Division, Miami, Fla. Bovine thrombin from Parke-Davis ([…], Mich.) is used for coagulation assays in plasma.
(§2) Coagulation assay procedures are as previously described. […] A CoAScreener coagulation instrument (American LABor, Inc.) is used for all coagulation assay measurements. The prothrombin time (PT) is measured by adding 0.05 mL saline and 0.05 mL Thromboplastin-C reagent to 0.05 mL test plasma. The activated partial thromboplastin time (APTT) is measured by incubation of 0.05 mL test plasma with 0.05 mL Actin reagent for 120 seconds followed by 0.05 mL CaCl2 (0.02M). The thrombin time (TT) is measured by adding 0.05 mL saline and 0.05 mL thrombin (10 NIH units/mL) to 0.05 mL test plasma. The compounds of Formula I are added to human or animal plasma over a wide range of concentrations to determine prolongation effects on the APTT, PT, and TT assays. Linear extrapolations are performed to estimate the concentrations required to double the clotting time for each assay.

[2] = biological target: Human Thrombin (Homo sapiens, UniProt P00734); assay: Inhibition of the amidase activity of thrombin (Kass); conditions: chromogenic substrate N-benzoyl-Phe-Val-Arg-p-nitroanilide; mean over range of concentrations
Experimental: The 150 μL of an aqueous solution of the chromogenic substrate (at 0.25 mg/mL) are added and the rates of hydrolysis of the substrate are measured by monitoring the reactions at 405 nm for the release of p-nitroaniline. Standard curves are constructed by plotting free thrombin concentration against hydrolysis rate. […] The amount of free inhibitor in each assay is calculated by subtracting the number of moles of bound thrombin from the number of moles of added inhibitor (test compound).
The Kass value is the hypothetical equilibrium constant for the reaction between thrombin and the test compound (I).
Kass is calculated for a range of concentrations of test compounds and the mean value is reported in units of liter per mole.

[3] = system: Human Plasma; assay: Human plasma anticoagulation, prothrombin time (PT); conditions: concentration required to double the clotting time
Experimental: as §1, §2

[4] = system: Human Plasma; assay: Human plasma anticoagulation, activated partial thromboplastin time (APTT); conditions: concentration required to double the clotting time
Experimental: as §1, §2

[5] = biological target: T1, factor Xa (Homo sapiens, UniProt P00742); assay: Kass, factor Xa chromogenic substrate assay; conditions: substrate N-Benzoyl-Ile-Glu-Gly-Arg-p-nitroanilide
T1 construct: Human factors X, Xa, IXa, XIa, and XIIa are purchased; purchased Enzyme Research Laboratories, South Bend, Ind
T1 sequence (P00742 235-488 limits assumed): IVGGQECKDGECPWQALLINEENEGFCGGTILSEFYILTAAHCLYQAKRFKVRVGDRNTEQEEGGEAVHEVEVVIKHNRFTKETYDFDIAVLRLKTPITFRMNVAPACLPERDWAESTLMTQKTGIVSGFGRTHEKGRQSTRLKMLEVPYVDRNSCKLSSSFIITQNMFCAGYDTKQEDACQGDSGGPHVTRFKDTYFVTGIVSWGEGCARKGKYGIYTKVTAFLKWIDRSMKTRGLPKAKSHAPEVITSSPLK
T1 sequence (P00742 41-179 partner limits assumed): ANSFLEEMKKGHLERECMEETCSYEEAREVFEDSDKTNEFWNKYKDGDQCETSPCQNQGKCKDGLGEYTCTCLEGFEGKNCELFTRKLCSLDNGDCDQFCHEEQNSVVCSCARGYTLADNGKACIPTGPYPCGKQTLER
Experimental: By substantially following the procedures described above for human thrombin, and using other human blood coagulation system serine proteases and proteases of the fibrinolytic system with the appropriate chromogenic substrates, identified below, selectivity of the compounds of the present invention with respect to the coagulation factor serine proteases and with respect to the fibrinolytic system serine proteases are evaluated as well as their substantial lack of interference with serine proteases of the fibrinolytic system.
Chromogenic substrates: N-Benzoyl-Ile-Glu-Gly-Arg-p-nitroanilide (for factor Xa); N-Cbz-D-Arg-Gly-Arg-p-nitroanilide (for factor IXa assay as the factor Xa substrate); Pyroglutamyl-Pro-Arg-p-nitroanilide (for Factor XIa and for aPC); H-D-Pro-Phe-Arg-p-nitroanilide (for factor XIIa); and Pyroglutamyl-Gly-Arg-p-nitroanilide (for urokinase); are purchased from KabiVirum, Stockholm, Sweden, or from Midwest Biotech, Fishers, Ind. Bovine trypsin is purchased from Worthington Biochemicals, Freehold, N.J., and human plasma kallikrein from Kabi Vitrum, Stockholm, Sweden. […] N-Benzoyl-Phe-Val-Arg-p-nitroanilide, the substrate for human thrombin and for trypsin, is synthesized according to procedures described above for the compounds of the present invention, using known methods of peptide coupling from commercially available reactants or purchased from Midwest Biotech, Fishers, Ind.

[6] = biological target: T2, Bovine trypsin (Bos taurus, UniProt P00760); assay: Kass, trypsin chromogenic substrate assay; conditions: substrate N-Benzoyl-Phe-Val-Arg-p-nitroanilide
T2 construct: Bovine trypsin is purchased from Worthington Biochemicals; purchased Worthington Biochemicals, Freehold, N.J
T2 sequence (P00760 24-246): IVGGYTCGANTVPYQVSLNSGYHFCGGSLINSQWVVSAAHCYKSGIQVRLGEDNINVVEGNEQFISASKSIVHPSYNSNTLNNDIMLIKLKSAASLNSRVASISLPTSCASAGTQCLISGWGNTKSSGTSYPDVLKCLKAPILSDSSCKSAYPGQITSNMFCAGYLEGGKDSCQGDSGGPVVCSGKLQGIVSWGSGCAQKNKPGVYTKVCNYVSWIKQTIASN

Compound	Human Plasma Anticoagulation 2x Clotting time TT [1]	Kass × 10^6 (L/mole) Human Thrombin [2]	Human Plasma Anticoagulation 2x Clotting time PT [3]	Human Plasma Anticoagulation 2x Clotting time APTT [4]	Kass × 10^6 (L/mole) Xa [5]	Kass × 10^6 (L/mole) Trypsin [6]
Cl.N=C(N)c1ccc(CNC(=O)CN(CCc2ccccc2)C(=O)CNCC(=O)O)cc1 [Example 89, HOOCCH2 -Gly-N-C6 H5 CH2 CH2 Gly-p-NHCH2 C6 H4 C(NH)NH2.HCl]	570 ng/mL	0.14 × 10^6 L/mole	37,000 ng/mL	51,000 ng/mL	0.071 × 10^6 L/mole	
CS(=O)(=O)CC(=O)N[C@H](CC1CCCCC1)C(=O)N1CCC[C@H]1C(=O)NCc1ccc(C(=N)N)cc1 [Example 92, MeSO2 CH2 CO-D-Cha-Pro-P-NHCH2 C6 H4 C(NH)NH2.HCl]	8.9 ng/mL	130 × 10^6 L/mole	340 ng/mL	210 ng/mL		7.7 × 10^6 L/mole
N=C(N)c1ccc(CNC(=O)[C@@H]2CCCN2C(=O)[C@@H](CC2CCCCC2)NCCCC(=O)O)cc1 [Example 85, HOOCCH2 CH2 CH2 -D-Cha-Pro-p-NHCH2 C6 H4 C(NH)NH2.HCl]	4.9 ng/mL	265 × 10^6 L/mole	197 ng/mL	100 ng/mL		30.8 × 10^6 L/mole
CCC(CC)C(=O)N[C@@H](CCS(C)(=O)=O)C(=O)N1CCC[C@H]1C(=O)NCc1ccc(C(=N)N)cc1 [Example 91, (C2 H5)2 CHCO-Met(O2)-Pro-p-NHCH2 C6 H4 C(NH)NH2.HCl]	63 ng/mL	3.6 × 10^6 L/mole	3,500 ng/mL	3,000 ng/mL	0.007 × 10^6 L/mole	
Cl.N=C(N)c1ccc(CNC(=O)[C@@H]2CCCN2C(=O)[C@@H](CC2CCCCC2)NCC(=O)O)nn1 [Example 69, HO2 CCH2 -D-Cha-Pro-3-NHCH2 -6-amidinopyridazine.HCl]	5. ng/mL	340 × 10^6 L/mole	220 ng/mL	110 ng/mL		3.7 × 10^6 L/mole
HOOCCH2 -D-hPhe-Pro-p-NHCH2 C6 H4 C(NH)NH2.HCl [Example 87]	9 ng/mL	30 × 10^6 L/mole	310 ng/mL	260 ng/mL	2.5 × 10^6 L/mole	
N=C(N)c1ccc(CNC(=O)[C@@H]2CCCN2C(=O)[C@@H](CCC2CCCCC2)NCC(=O)O)cc1 [Example 88, HOOCCH2 -D-hCha-Pro-p-NHCH2 C6 H4 C(NH)NH2.HCl]	4 ng/mL	410 × 10^6 L/mole	200 ng/mL	100 ng/mL	3.9 × 10^6 L/mole	
NCC1CCC(CNC(=O)[C@@H]2CCCN2C(=O)[C@@H](CC2CCCCC2)NCC(=O)O)CC1 (stereo partly drawn) [Example 79, HO2 CCH2 -D-Cha-Pro-4-NHCH2 C6 H10 CH2 NH2.HCl]	140 ng/mL	2.0 × 10^6 L/mole	2,400 ng/mL	1,700 ng/mL		0.24 × 10^6 L/mole
Cl.Nc1ccc(CNC(=O)[C@@H]2CCCN2C(=O)[C@@H](CC2CCCCC2)NCC(=O)O)c(F)c1 [Example 64, HO2 CCH2 -D-Cha-Pro-4-NHCH2 -3-F-C6 H3 NH2.HCl]	23 ng/mL	15 × 10^6 L/mole	650 ng/mL	900 ng/mL	0.01 × 10^6 L/mole	
Cl.N=C(N)c1cc(F)c(CNC(=O)[C@@H]2CCCN2C(=O)[C@@H](CC2CCCCC2)NCC(=O)O)c(F)c1 [Example 72, HO2 CCH2 -D-Cha-Pro-4-NHCH2 -3,5-F2 -benzamidine.HCl]	1 ng/mL	2,300 × 10^6 L/mole	160 ng/mL	160 ng/mL		280 × 10^6 L/mole
Cl.Nc1cc(CCNC(=O)[C@@H]2CCCN2C(=O)[C@@H](CC2CCCCC2)NCC(=O)O)ccn1 [Example 76, HO2 CCH2 -D-Cha-Pro-4-NHCH2 CH2 -2-aminopyridine.HCl]	29 ng/mL	12 × 10^6 L/mole	560 ng/mL	490 ng/mL		0.36 × 10^6 L/mole
Cl.N=C(N)c1ccc(CNC(=O)[C@@H]2CCCN2C(=O)[C@@H](CC2CCCCC2)NCC(=O)O)c(F)c1 [Example 71, HO2 CCH2 -D-Cha-Pro-4-NHCH2 -3-F-benzamidine.HCl]	1 ng/mL	1,400 × 10^6 L/mole	150 ng/mL	89 ng/mL		240. × 10^6 L/mole
NCc1ccc(CNC(=O)[C@@H]2CCCN2C(=O)[C@@H](CC2CCCCC2)NCC(=O)O)cc1 [Example 78, HO2 CCH2 -D-Cha-Pro-4-NHCH2 C6 H4 CH2 NH2.HCl]	46 ng/mL	11 × 10^6 L/mole	760 ng/mL	430 ng/mL		8.6 × 10^6 L/mole
CCS(=O)(=O)N[C@H](CC1CCCCC1)C(=O)N1CCC[C@H]1C(=O)NCc1ccc(CN)cc1 [Example 81, EtSO2 -D-Cha-Pro-4-NHCH2 C6 H4 CH2 NH2.HCl]	110 ng/mL	5.3 × 10^6 L/mole	2,700 ng/mL	1,500 ng/mL		2.1 × 10^6 L/mole
